According to patent US5691189A (priority 1995, dated 1997):
“Also recorded” adds a separate entry of the source.

Assays:
Type in all cases: cell-based
[1] = target: Udorn M2 (M2 protein of Influenza A virus) (Influenza A virus (A/Udorn/307/1972(H3N2)), UniProt P0DOF5)
[2] = target: T1, M2 (WSN) (M2 protein of Influenza A virus) (Influenza A virus (A/Wilson-Smith/1933(H1N1)), UniProt P05780); conditions: inducing media (galactose), 30° C., A600 versus time; amantadine 100 μM (FIG. 4)
T1 construct: amantadine-resistant, natural Asn31

[3] = target: M2 (WSN, N31S) (M2 protein of Influenza A virus) (Influenza A virus (A/Wilson-Smith/1933(H1N1)), UniProt P05780, N31S)

In the case of `NC12CC3CC(CC(C3)C1)C2` [amantadine], the “growth of yeast transformants expressing the Udorn allele of M2 in the presence of amantadine” value [1] is reported as “growth rescue; also recorded: grow at near wild-type rates”, the “growth of yeast transformants expressing the amantadine-resistant WSN allele of M2 in the presence of amantadine” value [2] is reported as “not remediated” and the “toxicity of overexpressed WSN(N31S) M2 allele in yeast on addition of amantadine to the media” value [3] is reported as “blocked”.
